The structures appear in SMILES notation. Where only a bound is given, the exact number is not on record here.

This passage reports melting point results from a melting point compilation (Tetko et al.; mined from patent text by program, amines drawn as free bases though some values may be those of a salt).

As to `COC(=O)CCCc1ccc(C(=O)C=Cc2ccccc2)cc1`, the melting point lay within 43 to 44 °C. Compound `Clc1cccc(CN(c2ncnc3[nH]ncc23)C2CCCC2)c1` came in with a melting point of 186 to 187 °C. Take `CCNC(=O)Nc1ccc(-c2sc3c(c2CN(C)CCOCCOCC)c(=O)n(-c2ccccc2)c(=O)n3Cc2c(F)cccc2F)cc1`: the melting point lay in the range of 230 to 233 °C.

As to `CS(=O)(=O)c1ccc(-c2cnn(CC(F)(F)F)c(=O)c2OCc2ccccc2)cc1`, the melting point is 121 to 123 °C.

`NC(=O)C(c1ccccc1)N1C(=O)c2ccccc2C1=O` (stereo not drawn) came in with a melting point of 218 °C. Regarding `COc1cc(OC)c2c(=O)[nH]c(-c3ccc(OC)c(-c4ccc(C(=O)N(C)C)cc4Cl)n3)nc2c1`, the melting point is 271 to 272 °C. The result for `O=C(O)c1ccc(-c2ccc(OCCCCO)c(-c3ccc(N4CCCC4)c(C(F)(F)F)c3)c2)cc1` reads 237 °C. The result for `OC(CNCc1ccccc1)c1cc(C(F)(F)F)nc2c(C(F)(F)F)cccc12` (stereo not drawn) reads 138 to 139 °C. In the case of `NS(=O)(=O)c1ccc(-c2cccc(-c3nc(-c4ccc(C(F)(F)F)c(F)c4)cc(C(F)(F)F)n3)c2)s1` it was 214 °C; in that of `CCCCCC(=O)c1ccc(OCc2ccc3ccccc3n2)cc1`, 78 to 80 °C; in that of `O=c1[nH]c2ccc(CCN3CCN(c4cccc5cccnc45)CC3)cc2o1`, 200 °C. As to `COc1ccc(-c2ccc(OC)c(C34CC5CC(CC(C5)C3)C4)c2)cc1C12CC3CC(CC(C3)C1)C2`, the melting point lay in the range of 288 to 289 °C.

With `COCCn1nc2c(N)nc3ccccc3c2c1CC1CCOCC1`, the melting point lay within 189 to 190 °C. For `Cc1ccc(Cc2cnc(NCCCNc3ncccc3C)[nH]c2=O)cn1`, the melting point was 119 to 123 °C.

For `CSc1c(C(=O)O)ccc(Br)c1Cl`, the melting point fell in the range of 128 to 130 °C.

For `CCn1c(=O)c(-c2c(Cl)cccc2Cl)cc2cnc(Nc3ccc(OC)c(OC)c3)nc21`, the melting point was 221 to 223 °C. Turning to `CCCn1nc(C)c(C(=O)O)c1Cc1ccc(-c2ccccc2-c2nnn[nH]2)cc1`, the melting point fell in the range of 240 to 242 °C.

`O=C(O)c1cncc(O)c1C(=O)c1cc(Cl)ccc1F` showed a melting point of 262 to 264 °C. The result for `CCN1c2cscc2CN(C)c2ccccc21` reads 135 to 137 °C; that for `Cc1cccc(-c2[nH]nc(N3CCN(C)CC3)c2-c2ccncc2)c1`, 262 °C. `NC(=O)c1cc(C(O)CN(Cc2ccccc2)Cc2ccccc2)cc2cc[nH]c12` (stereo not drawn) had a melting point of 116 to 118 °C. The result for `OC(c1cccnn1)c1ccc(Cl)cc1Cl` (stereo not drawn) reads 130 to 132 °C.

With `COc1ccc(-n2c(N)cc(=O)nc2Nc2ccccc2)cc1`, the melting point was 180 to 190 °C.

In turn, `CCOC(=O)c1cc2c(OC)cc3c(c2n1Cc1ccccc1)CCCC3` gave a melting point of 86 to 88 °C. As to `CC(C)(CNC(=O)CSCC(=O)O)SN=O`, the melting point was 47 to 51 °C. In the case of `CCOC(=O)c1c(-c2ccc(Cl)s2)ccnc1C(C(=O)OCC)c1cc(OC)cc(OC)n1` (stereo not drawn) it was 127 to 132 °C; in that of `CCCCCCCCCCCCCCCCSCCCCCCCCCCC(=O)NN`, 108 °C. The result for `CCCC(=O)OC1(C(C)=O)C(C)CC2C3CCC4=CC(=O)C=CC4(C)C3(Cl)C(=O)CC21C` (stereo not drawn) reads 154 to 155 °C; that for `Nc1c([N+](=O)[O-])cc(F)c(F)c1Cl`, 86 to 88 °C. The result for `Cc1ccc(-c2nc3cccnc3n2CC(=O)O)s1` reads greater than 250 °C; that for `OC1(c2cn(-c3ccc(Br)cc3)nn2)CN2CCC1CC2` (stereo not drawn), 214 °C; that for `COC(=O)c1ccc(OC(=O)c2ccc(C(=O)Oc3ccc(C(=O)OC)cc3)cc2)cc1`, 243 to 245 °C. In the case of `CSC(=O)C(C#N)C(=O)Nc1ccc(C(F)(F)F)cc1` (stereo not drawn), the melting point fell in the range of 196 to 198 °C. In the case of `O=P(CCc1ccccc1)(OCc1ccccc1)OCc1ccccc1` it was 48 to 49 °C. In the case of `FC(F)=Cc1nn(-c2c(Cl)cc(C(F)(F)F)cc2Cl)cc1C1CC1(Br)Br` (stereo not drawn) it was 71 to 73 °C. With `O=C(OCCN1CCCC1)c1c[nH]c2ccccc12`, the melting point fell in the range of 145 to 146 °C.

In the case of `COc1ccc(C=CC(=O)c2c(OC)cc(OC)cc2OC(=O)c2ccc(OC)cc2)cc1`, the melting point lay within 111 to 112 °C. In turn, `CCOC(=O)c1cc(-n2c(=O)[nH]c3c(c2=O)CCC3)ccc1[N+](=O)[O-]` came in with a melting point of 205 to 208 °C. `Cc1ccc(-c2ccc(Cl)cc2)cc1C1C(=O)COC(C)(C)C1=O` (stereo not drawn) had a melting point of 186 to 188 °C.

`CS(=O)(=O)c1ccc(-c2cc(C(=O)CCCO[N+](=O)[O-])nn2-c2ccc(F)cc2)cc1` returned a melting point of 134 to 136 °C. In the case of `C=C=CC1(NC(=O)c2ccccc2)CCCNC1=O` (stereo not drawn) it was 203 to 204 °C; in that of `CC1(Cc2ccccc2)CCCNC1=O` (stereo not drawn), 76 to 78 °C; in that of `O=C1c2ccccc2C(=O)N1CCN1c2ccccc2N(Cc2ccccc2)C(=O)[C@H]2CCC[C@H]21` (relative stereo), 142 to 143 °C. Compound `Cc1c(-c2ccncc2)[nH]c(-c2ccncc2)c1C(=O)OC(C)C` returned a melting point of 218 to 221 °C. In the case of `Cc1onc2c1NC(=O)COC2(C)c1ccccc1` (stereo not drawn) it was 177 to 178 °C; in that of `CC1(C)CCCC(Cl)(Cl)C(=O)N1`, 148 to 155 °C; in that of `CCCc1c(OCCCCCCc2cc(C)c(O)c(O)c2C)ccc(C(=O)OCC)c1O`, 61 to 64 °C.

For `N#CCN1CCN(c2cccccc2=O)CC1`, the melting point was 133 to 135 °C. `CC(=O)Nc1cccc(C2=NNC(=O)C3CC23)c1` (stereo not drawn) displayed a melting point of 200 to 202 °C.

Consider `Cc1cccc(S(=O)(=O)Nc2cccnc2Nc2ccccc2)c1`, for which the melting point was 161 to 162 °C. The result for `COC(=O)CCC(C)C1CCC2C3CC=C4CC(OC(C)=O)CCC4(C)C3CCC12C` (stereo not drawn) reads 152 °C. As for `O=C(Nc1ccc(-n2nc(C3CC3)cc2C2CC2)cc1)c1cccc(F)c1F`, the melting point was in the range of 135 to 142 °C. With `O=C(C/C=C/c1ccccc1)Nc1cccc(-n2ccnc2)c1`, the melting point was in the range of 130 to 133 °C. For `CC(N1C(=O)C(=O)N(c2ccc(Cl)cc2)C1=S)C(C)(C)C` (stereo not drawn), the melting point lay within 199 to 200 °C.

`CCOC(=O)c1csc(Nc2ccccc2)n1`: the melting point lay in the range of 140 to 142 °C. The result for `CN1CCN(c2ccc(F)cc2C=C2CCCN(c3ccc(Cl)cc3)C2=O)CC1` reads 158 to 159 °C; that for `O=C1C(Cc2ccccc2Cl)c2cc([N+](=O)[O-])ccc2ON1CCO` (stereo not drawn), 108 to 110 °C.

In turn, `CC(=O)NC[C@H]1CN(c2ccc(N3C[C@@H]4C[C@H]3CS4)c(F)c2)C(=O)O1` registered a melting point of 90 to 95 °C. `CCN1C(=O)C2CC(c3ccc(N)cc3)(C2)C1=O` yielded a melting point of 159 to 162 °C.

In turn, `CS(=O)(=O)OCC(C#N)(c1ccc(Cl)cc1)c1ccccc1Cl` (stereo not drawn) had a melting point of 124 to 127 °C.

Turning to `CC(C)c1nn(-c2ccc(C(F)(F)F)cn2)cc1CO`, the melting point was 119 to 120 °C. The result for `CON1CCC2(CC1)C(OCc1ccccc1)=C(c1c(C)cc(C)cc1C)C(=O)N2C` reads 139 to 141 °C; that for `CC(=O)SCC(Cc1ccccc1)NC(=O)N1CCN(C)CC1` (single isomer, unassigned; (+)), 78 °C. Regarding `COC(=O)Cc1ccc(OCCNC(=O)C2Cc3ccccc3N2S(=O)(=O)c2ccc(-c3ccc(F)cc3Cl)cc2)cc1` (stereo not drawn), the melting point came to 68 °C. In turn, `CCN(CC)c1ccc(C=O)c([N+](=O)[O-])c1` displayed a melting point of 75 to 77 °C.

Consider `Cc1oncc1C(=O)c1ccc(C(F)(F)F)cc1[N+](=O)[O-]`, for which the melting point was in the range of 85 to 86 °C. In the case of `CCOC(=O)C(C(=O)OCC)c1c(Br)cnc2c([N+](=O)[O-])cccc12` it was 94 to 95 °C.

`NC(=O)c1ccnc(NC(=O)N2CCC3(CCc4cc(F)ccc4O3)CC2)c1` displayed a melting point of 265 to 267 °C. In the case of `Nc1cc(OCC2=CCCSC2)c(Cl)cc1F` it was 73 to 74 °C; in that of `CCn1cc(C(=O)Nc2ccc(C(C)C)cc2)cn1`, 141 °C; in that of `CCn1nc(C2CC2)c(C(=O)O)c1Cc1ccc(-c2ccccc2S(=O)(=O)NC(=O)c2ccccc2)cc1`, 217 °C. The result for `COCCN1CCC(O)(c2cc(F)cc(F)c2)C1` (single isomer, unassigned; (-)) reads 130 to 131 °C; that for `O=C(O)c1ccc(N2CCCC2)c(NC(=O)C(CS)Cc2ccccc2)c1` (stereo not drawn), 229 to 234 °C.

`CN1Cc2ccccc2P1(=O)c1ccccc1` (stereo not drawn): the melting point lay in the range of 129 to 130 °C. In the case of `O=C(NCc1ccc(F)cc1-n1cncn1)c1nc2n(c(=O)c1OCc1ccccc1)CCN2c1ccccc1` it was 187 to 190 °C; in that of `O=C(O)C1(CCc2ccc(Cl)cc2)CCN(CC2CC2)CC1`, 250 °C. In the case of `CC(CC(=O)O)(C(=O)O)c1ccc(F)cc1` (stereo not drawn) it was 149 to 152 °C; in that of `CCN(CC)CCSC1=C(C#N)C(c2ccccc2)(c2cccs2)C(=O)N1` (stereo not drawn), 165 °C; in that of `c1ccc(-c2cc3ccccc3s2)nc1`, 124 to 126 °C. In turn, `COc1ccc(C(=O)CCCCCBr)cc1Cl` showed a melting point of 104 to 106 °C.

Turning to `c1ccc(-n2c(-c3ccc(OCCN4CCCCC4)cc3)nc3ccccc32)cc1`, the melting point worked out at 107 °C. Compound `COc1c(N2C[C@@H](C)N[C@@H](C)C2)c(F)cc2c(=O)c(C(=O)O)cn([C@@H]3C[C@@H]3F)c12` had a melting point of 129 to 131 °C. In the case of `COCc1ccc(S(=O)(=O)N2CCCC2c2ccc(F)cc2)cc1` (racemic) it was 115 °C. In turn, `Cc1cc(-n2cnnn2)cc2c1NC(=O)CC2` gave a melting point of 271 to 272 °C. As for `COCC(C#N)=Cc1cc(OC)c(OC)c(OC)c1`, the melting point fell in the range of 79 to 81 °C. The compound `CC(C)(C)CC(NC(=O)c1ccc(Cl)cc1)NC(=NC#N)Nc1cccnc1` (stereo not drawn) registered a melting point of 181 to 183 °C. For `COc1ccc(S(=O)(=O)N2CC3CCC(C3)C2)c2ccccc12`, the melting point lay in the range of 136 to 139 °C. Turning to `N#Cc1cc(N)ccc1N1CCN(C2CCOCC2)CC1`, the melting point was determined as 162 °C.
